“And” between values parts separate entries of the source, which are not always exact repeats. Identical values can stand only once. Ends that are not written are not given here.
Columns and labels:
SERCA1a [1] = conditions: cited from earlier work
Text: (§1) Besides its various roles in protein signalling and addressing, palmitoylation can also regulate oligomerisation processes of membrane proteins. Recent work has shown that other P-type ATPases regulatory subunits like phospholamban (PLB) and phospholemman (PLM) are palmitoylated[16],[17]. Acylation of PLB and PLM is functionally relevant by having an impact on the oligomerisation of the peptides, their association with their dedicated pumps (Ca^2+-ATPase or Na+, K+-ATPase, respectively) and on their lifetime.

protein kinase A (PKA) = conditions: cited from earlier work
Text: as §1

[2] = test system: protein phosphatase 1a (PP1a); conditions: cited from earlier work
Text: as §1

[3] = test system: recombinant purified SERCA1a (recS1a); experiment: Limited proteolysis with proteinase K (SDS-PAGE); format: biochemical, rabbit (expressed in S. cerevisiae); conditions: DDM-solubilized SR; 5 min profile similar to 60 min in native lipids
Method: Yeast-expressed and purified SERCA1a (recS1a) was supplemented with SLN at a mole:mole ratio of 1:10 recS1a:SLN. In absence of SLN, recS1a was supplemented with 0.07 mg/mL C12E8, an amount that corresponds to the detergent brought with chemically synthesized SLN. After 30 min at 20 °C, samples were supplemented with either 1.1 mM EGTA (Ca^2+free ~ 1 mM), or 50 mM EGTA (Ca^2+free ~ 150 nM) and 0.01 mg/mL Tg. After an additional incubation for 10 min at 20 °C, proteolysis was achieved by addition of 0.3 mg/mL proteinase K. Proteolysis was stopped by addition of 1 mM PMSF and incubation on ice for 10 min. After proteolysis arrest, samples were diluted twice in a 4 M-urea containing denaturation buffer, boiled for 60 s, and about 0.75 µg protein were loaded on a 9% SDS-PAGE prepared in the presence of 1 mM Ca^2+[32]. After electrophoresis, gels were stained with Coomassie blue.

[4] = biological target: T1, recombinant SERCA1a (recS1a) (Oryctolagus cuniculus, UniProt P04191); experiment: Steady-state ATPase activity, enzyme-coupled assay; format: biochemical, rabbit (expressed in S. cerevisiae); conditions: absence of pSLN; steady state, NADH-coupled assay; three independent experiments
T1 construct: BAD (biotin acceptor domain) (C, cleaved yes); made in house; host or cells: Saccharomyces cerevisiae
Method: resuspended in a large volume of pure water and lyophilized to evaporate most of the TFA. The rinsed powder was then suspended in presence of 10 mM HCl to exchange the anionic residual TFA that may interact with the positive charges of the peptide for chloride. This suspension was lyophilized again.
Three additional cycles of – dissolving in pure water / lyophilisation – will allow to eliminate traces of TFA and to get back to a pH compatible with functional tests. For final solubilisation of SLN in detergent, powder was then dissolved in 50% TFE and an amount of detergent to reach a 100:1 mole:mole detergent:SLN ratio. Here, we used C12E8 as it is fully compatible with functional characterization of SERCA1a 23. This suspension was then lyophilized again to evaporate TFE.
Sarcolipins (Palm-SLN or SLN) were finally resuspended at 0.8 mg/mL (about 200 µM) in a 10 mM potassium phosphate buffer pH 7.4, in the presence of 2.5 mg/mL C12E8.
Expression and Purification of recombinant SERCA1a (recS1a)
The yeast expression plasmid pYeDP60-SERCA1a-BAD (WT) and expression in Saccharomyces cerevisiae was described previously 30. Yeast membranes were solubilized by DDM for subsequent purification of recombinant Ca2+-ATPase by Streptavidin affinity chromatography 31. Purified recombinant SERCA1a was recovered in a buffer containing 50 mM MOPS-Tris pH7, 100 mM KCl, 5 mM MgCl2, 2.1 mM CaCl2, 40 % glycerol (v/v) and 0.5 mg/mL DDM, together with some thrombin remaining from the elution procedure. The protein concentration in the purified fraction was in the 0.05 to 0.15 mg/mL range depending on the batch. […]
Steady-state ATPase activity measurements
Measurements were performed using classical enzyme coupled assay. We measured the rate of NADH oxidation in the presence of 0.1 mg/mL lactate deshydrogenase, 0.05 mg/mL pyruvate kinase, 1 mM phosphoenolpyruvate, 0.25 mM NADH (protocol was adapted from 22) and in the additional presence of 2 mg/mL C12E8 to limit time-dependent inactivation of the purified SERCA1a 20,23.

[5] = biological target: T1, recombinant SERCA1a (recS1a); experiment: Calcium binding at equilibrium by tryptophan fluorescence; parameters: species or system rabbit (expressed in S. cerevisiae); conditions: absence of pSLN, average of three independent experiments
Method: (§2) Intrinsic fluorescence of SERCA1a was measured with a SPEX Fluorolog spectrofluorometer (Horiba/Jobin–Yvon, Longjumeau, France) as described before. Briefly, signals were monitored with excitation and emission wavelength set at 295 and 320 nm, with bandwidths of 2 and 10 nm, respectively. Changes in tryptophan fluorescence were recorded at 20 °C after dilution of protein samples to a final concentration of about 6–7.5 µg/mL into a medium containing 50 mM MOPS-Tris pH 7, 100 mM KCl, 5 mM MgCl2, 20% glycerol (v/v) and 10 mg/mL DDM. In presence of SLN, recS1a and SLN were first mixed together and incubate for 1 h on ice before measurement. In absence of SLN, recS1a is supplemented with 0.07 mg/mL C12E8 to compensate the detergent present with SLN. The Maxchelator program was used for estimating [Ca^2+]free[59] (program available at https://somapp.ucdmc.ucdavis.edu/pharmacology/bers/maxchelator/downloads.htm). The dissociation constant of the Ca.EGTA complex was taken to be 0.4 µM at pH7 and was assumed to be the same in the presence of glycerol.

[6] = biological target: T1, recombinant SERCA1a (recS1a); experiment: Calcium dependence of phosphoenzyme level; format: biochemical, rabbit (expressed in S. cerevisiae); conditions: absence of pSLN, five independent experiments
Method: (§3) Transient formation of the phosphoenzyme intermediate was measured after incubation with [γ^32P]ATP followed by acid quenching, and filtration. For most experiments, 50 µL of enzyme at 10 µg/mL in a buffer containing 50 mM Tes-Tris pH7.5, 1 mM KCl, 5 mM MgCl2, 20% glycerol (w/w) and 0.5 mg/mL DDM, supplemented or not with SLN, was stored on ice. Concentrations of EGTA and calcium are specified in figure legends in order to reach the appropriate [Ca^2+]free and therefore the desired starting state for the ATPase. For kinetics of phosphorylation, we initiate reaction by addition of 2 µM [γ^32P]ATP (5 mCi/µmole), and calcium at 100 µM when specified. Reaction was quenched by addition of 2 mL of cold quenching medium (500 mM TCA + 30 mM H3P0_4) under vigorous mixing, and immediately stored on ice for 20–30 min to improve precipitation, a period of time critical for retention of the precipitate on the filter in presence of detergent. This was followed by filtration on GS filters (Millipore, Saint Quentin-Fallavier, France) and careful rinsing of the filters with diluted quenching medium (50 mM TCA + 3 mM H3P0_4). The amount of radioactivity bound to the filter was estimated by liquid scintillation counting (Perkin Elmer TriCarb Counter). When starting from a calcium-deprived state (Fig. 4C,D), EGTA was added only one minute before starting phosphorylation to limit irreversible inactivation of the solubilized ATPase, although the presence of glycerol helps in protecting the enzyme from irreversible inactivation. For dephosphorylation kinetics, 1 mM “cold” Mg.ATP was added after a 30 s period of phosphorylation. For Ca^2+-dependency, we adjust the concentration of free calcium according to the Ca.EGTA constant as mentioned above, before triggering phosphorylation. […] Phosphorylations were done at 0 °C especially for inhibition by vanadate to prevent dissociation of vanadate and limit irreversible inactivation in absence of calcium.

SERCA1a [7] = conditions: deacylation with hydroxylamine; steady state; in membrane or after solubilization by C12E8; cited from earlier work
Text: Effect on the turnover is less clear as it seems to highly depend on the system used for functional characterization. […] This post-translational modification is also present in pig SLN and presumably in a few other mammals and birds, as judged from the amino-acid sequences. Among the other hundred seq ...

[8] = biological target: T1, recombinant SERCA1a (recS1a); experiment: Mg.ATP binding by tryptophan fluorescence; parameters: species or system rabbit (expressed in S. cerevisiae)
Method: as §2

[9] = biological target: T1, recombinant SERCA1a (recS1a); experiment: Vanadate inhibition of phosphoenzyme formation, recS1a; format: biochemical, rabbit (expressed in S. cerevisiae); conditions: absence of pSLN, phosphorylation 30 s at 0 °C, three independent experiments
Method: as §3

T1 sequence (P04191 1-994 isoform P04191-2): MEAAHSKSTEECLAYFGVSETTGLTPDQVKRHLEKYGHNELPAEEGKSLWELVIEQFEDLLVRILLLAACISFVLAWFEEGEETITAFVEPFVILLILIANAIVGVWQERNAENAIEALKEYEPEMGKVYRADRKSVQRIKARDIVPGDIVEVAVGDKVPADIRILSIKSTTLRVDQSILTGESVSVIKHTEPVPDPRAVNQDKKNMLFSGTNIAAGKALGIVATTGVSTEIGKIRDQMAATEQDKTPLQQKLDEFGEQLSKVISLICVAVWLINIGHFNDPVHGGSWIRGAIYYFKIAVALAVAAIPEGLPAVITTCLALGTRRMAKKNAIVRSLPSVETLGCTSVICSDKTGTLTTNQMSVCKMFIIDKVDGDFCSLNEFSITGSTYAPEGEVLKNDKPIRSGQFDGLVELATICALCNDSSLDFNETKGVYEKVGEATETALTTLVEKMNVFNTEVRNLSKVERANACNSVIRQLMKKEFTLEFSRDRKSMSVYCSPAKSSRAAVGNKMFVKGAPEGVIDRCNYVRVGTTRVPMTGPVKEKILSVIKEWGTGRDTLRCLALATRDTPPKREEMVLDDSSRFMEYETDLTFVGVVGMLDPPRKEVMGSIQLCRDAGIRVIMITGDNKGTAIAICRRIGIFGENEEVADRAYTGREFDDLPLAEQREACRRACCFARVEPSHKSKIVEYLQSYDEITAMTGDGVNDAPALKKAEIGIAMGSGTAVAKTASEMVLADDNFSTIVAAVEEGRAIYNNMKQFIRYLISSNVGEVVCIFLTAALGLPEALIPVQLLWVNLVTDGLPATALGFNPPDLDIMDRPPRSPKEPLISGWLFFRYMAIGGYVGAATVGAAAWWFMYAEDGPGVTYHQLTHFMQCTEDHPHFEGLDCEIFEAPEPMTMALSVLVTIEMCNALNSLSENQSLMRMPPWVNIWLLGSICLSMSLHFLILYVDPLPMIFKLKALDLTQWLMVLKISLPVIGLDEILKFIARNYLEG

For “PLB: phospholamban, 52 amino-acid long, with a transmembrane helix and a long cytosolic extension”, the “effect of PLB phosphorylation on SERCA1a inhibition” value (SERCA1a [1]) is listed as “release of SERCA1a inhibition without its full dissociation from the pump”, the “effect of PLB palmitoylation (Cys 36) on PKA affinity” value (protein kinase A (PKA)) is listed as “increases affinity for protein kinase A (PKA)” and the “effect of PLB palmitoylation (Cys 36) on PP1a affinity” value [2] is listed as “reduces affinity for protein phosphatase 1a (PP1a)”.

With CCCCCCCCCCCCO[C@@H]1O[C@H](CO)[C@@H](O[C@H]2O[C@H](CO)[C@@H](O)[C@H](O)[C@H]2O)[C@H](O)[C@H]1O [DDM, n-dodecyl β-D-maltopyranoside, reference compound] the “effect of detergent on proteinase K proteolysis” value [3] was “significantly accelerates proteolysis”.

For [Ca+2] [calcium], the “Ca1/2 (ATPase activity), recS1a alone” value [4] was 0.15 ± 0.08 µM, the “Ca1/2 (tryptophan fluorescence), recS1a alone” value ([5]; at equilibrium, pH 7, 20 °C, DDM, 20% glycerol) was 2.94 ± 0.30 µM and 2.9 µM and the “nH for calcium (tryptophan fluorescence), recS1a alone” value [5] was 1.67+/-0.25. For the same molecule, the “nH for calcium (phosphoenzyme level), recS1a alone” value [6] was 0.54 ± 0.02 and the “Ca1/2 (phosphoenzyme level), recS1a alone” value ([6]; phosphorylation 15 s) was 0.33 ± 0.03 µM and 0.33 µM.

For “native SLN: native rabbit sarcolipin, S-palmitoylated or S-oleoylated on Cys9, co-purified with SERCA1a from SR (MERSTRELCLNFTVVLITVILIWLLVRSYQY; also: Cys9 S-palmitoylated or S-oleoylated; UniProt P42532 1-31, looked up)”, the “effect of deacylation of native SLN on affinity for calcium and Vmax” value (SERCA1a [7]) is listed as “no effect”.

For Nc1ncnc2c1ncn2[C@@H]1O[C@H](COP(=O)(O)OP(=O)([O-])OP(=O)([O-])O)[C@@H](O)[C@H]1O.[Mg+2] [Mg.ATP, reference compound], the “Mg-ATP1/2 (affinity for Mg.ATP), recS1a alone” value ([8]; absence of pSLN, calcium-deprived (2 mM EGTA), pH 7, 20 °C, DDM, 20% glycerol, three independent experiments) was 3 µM and 3.00 ± 0.12 µM, the “nH for Mg.ATP, recS1a alone” value ([8]; absence of pSLN, three independent experiments) was 0.99 ± 0.04 and the “Mg.ATP concentration sufficient to saturate the SERCA1a site” value ([8]; in absence of SLN, not in its presence) was “about 30 µM”.

With [O]=[V]([O-])([O-])[O-] [orthovanadate, reference compound] the “K1/2 (K0.5) for vanadate inhibition, recS1a alone” value [9] was 1.43 ± 0.08 µM and the “K1/2 (K0.5) for vanadate inhibition, recS1a alone” value ([9]; listed as vanadate) was 1.43 ± 0.08 µM.
